Source: US20170107229A1, “SUBSTITUTED TETRAHYDROPYRIDOTHIENOPYRIMIDINES” (BAYER PHARMA AKTIENGESELLSCHAFT, priority 2014, published 2017)

Each compound was assayed against T1, human full-length MKNK1 (Homo sapiens, UniProt Q9BUB5, T385D) (assay: MKNK1 kinase high ATP assay (TR-FRET)). Conditions: high ATP (2 mM final), 15 min preincubation with enzyme, GST-MKNK1 (T344D).
T1 construct: GST (N); purchased Carna Biosciences 02-145; host or cells: insect cells (baculovirus expression system)
Type: biochemical
Method: MKNK1-inhibitory activity at high ATP of compounds of the present invention after their preincubation with MKNK1 was quantified employing the TR-FRET-based MKNK1 high ATP assay as described in the following paragraphs.
A recombinant fusion protein of Glutathione-S-Transferase (GST, N-terminally) and human full-length MKNK1 (amino acids 1-424 and T344D of accession number BAA 19885.1), expressed in insect cells using baculovirus expression system and purified via glutathione sepharose affinity chromatography, was purchased from Carna Biosciences (product no 02-145) and used as enzyme. As substrate for the kinase reaction the biotinylated peptide biotin-Ahx-IKKRKLTRRKSLKG (C-terminus in amide form) was used, which can be purchased e.g. from the company Biosyntan (Berlin-Buch, Germany).
For the assay 50 nL of a 100fold concentrated solution of the test compound in DMSO was pipetted into a black low volume 384well microtiter plate (Greiner Bio-One, Frickenhausen, Germany), 2 μL of a solution of MKNK1 in aqueous assay buffer [50 mM HEPES pH 7.5, 5 mM MgCl2, 1.0 mM dithiothreitol, 0.005% (v/v) Nonidet-P40 (Sigma)] was added and the mixture was incubated for 15 min at 22° C. to allow pre-binding of the test compounds to the enzyme before the start of the kinase reaction. Then the kinase reaction was started by the addition of 3 μL of a solution of adenosine-tri-phosphate (ATP, 3.3 mM=>final conc. in the 5 μL assay volume is 2 mM) and substrate (0.1 μM=>final conc. in the 5 μL assay volume is 0.06 μM) in assay buffer and the resulting mixture was incubated for a reaction time of 30 min at 22° C. The concentration of MKNK1 was adjusted depending of the activity of the enzyme lot and was chosen appropriate to have the assay in the linear range, typical concentrations were in the range of 0.003 μg/mL. The reaction was stopped by the addition of 5 μL of a solution of TR-FRET detection reagents (5 nM streptavidine-XL665 [Cisbio Bioassays, Codolet, France] and 1 nM anti-ribosomal protein S6 (pSer236)-antibody from Invitrogen [#44921G] and 1 nM LANCE EU-W1024 labeled ProteinG [Perkin-Elmer, product no. AD0071]) in an aqueous EDTA-solution (100 mM EDTA, 0.1% (w/v) bovine serum albumin in 50 mM HEPES pH 7.5).
The resulting mixture was incubated for 1 h at 22° C. to allow the formation of complex between the phosphorylated biotinylated peptide and the detection reagents. Subsequently the amount of phosphorylated substrate was evaluated by measurement of the resonance energy transfer from the Eu-chelate to the streptavidine-XL. Therefore, the fluorescence emissions at 620 nm and 665 nm after excitation at 350 nm were measured in a TR-FRET reader, e.g. a Rubystar (BMG Labtechnologies, Offenburg, Germany) or a Viewlux (Perkin-Elmer). The ratio of the emissions at 665 nm and at […] was taken as the measure for the amount of phosphorylated substrate. The data were normalised (enzyme reaction without inhibitor=0% inhibition, all other assay components but no enzyme=100% inhibition).

T1 sequence (Q9BUB5 1-424 isoform Q9BUB5-2 T344D): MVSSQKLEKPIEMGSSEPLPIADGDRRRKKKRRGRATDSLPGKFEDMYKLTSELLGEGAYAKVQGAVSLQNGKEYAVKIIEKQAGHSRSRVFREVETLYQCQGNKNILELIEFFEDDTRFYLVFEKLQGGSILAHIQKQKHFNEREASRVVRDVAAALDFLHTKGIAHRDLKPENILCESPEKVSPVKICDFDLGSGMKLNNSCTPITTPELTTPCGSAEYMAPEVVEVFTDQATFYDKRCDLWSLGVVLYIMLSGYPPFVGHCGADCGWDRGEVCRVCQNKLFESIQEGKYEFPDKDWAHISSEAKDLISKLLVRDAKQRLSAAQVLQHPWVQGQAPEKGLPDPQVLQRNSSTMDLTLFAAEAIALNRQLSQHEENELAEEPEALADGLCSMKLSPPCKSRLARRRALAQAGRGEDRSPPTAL

| SMILES | IC50 [nM] |
| --- | --- |
| CN(C)C(=O)N1CCc2c(sc3ncnc(Nc4cc5cn[nH]c5cc4Br)c23)C1 [Example 29, 4-[(6-Bromo-1H-indazol-5-yl)amino]-N,N-dimethyl-5,8-dihydropyrido[4′,3′:4,5]thieno[2,3-d]pyrimidine-7(6H)-carboxamide] | 37 |
| CN(C)C(=O)N1CCc2c(sc3ncnc(Nc4ccn5nccc5c4)c23)C1 [Example 30, N,N-Dimethyl-4-(pyrazolo[1,5-a]pyridin-5-ylamino)-5,8-dihydropyrido[4′,3′:4,5]thieno[2,3-d]pyrimidine-7(6H)-carboxamide] | 484 |
| C[C@@H]1CN(C(=O)N2CCc3c(sc4ncnc(Nc5ccc6[nH]c(=O)sc6c5)c34)C2)C[C@H](C)O1 [Example 31, 6-[(7-{[(2R,6S)-2,6-Dimethylmorpholin-4-yl]carbonyl}-5,6,7,8-tetrahydropyrido[4′,3′:4,5]thieno[2,3-d]pyrimidin-4-yl)amino]-1,3-benzothiazol-2(3H)-one] | 59 |
| COc1cc2[nH]ncc2cc1Nc1ncnc2sc3c(c12)CCN(C(=O)N1C[C@@H](C)O[C@@H](C)C1)C3 [Example 32, [(2R,6S)-2,6-Dimethylmorpholin-4-yl]{4-[(6-methoxy-1H-indazol-5-yl)amino]-5,8-dihydropyrido[4′,3′:4,5]thieno[2,3-d]pyrimidin-7(6H)-yl}methanone] | 10 |
| C[C@@H]1CN(C(=O)N2CCc3c(sc4ncnc(Nc5ccc6[nH]ncc6c5)c34)C2)C[C@H](C)O1 [Example 33, [(2R,6S)-2,6-Dimethylmorpholin-4-yl][4-(1H-indazol-5-ylamino)-5,8-dihydropyrido[4′,3′:4,5]thieno[2,3-d]pyrimidin-7(6H)-yl]methanone] | 21 |
| C[C@@H]1CN(C(=O)N2CCc3c(sc4ncnc(Nc5cc6cn[nH]c6cn5)c34)C2)C[C@H](C)O1 [Example 34, [(2R,6S)-2,6-Dimethylmorpholin-4-yl][4-(1H-pyrazolo[3,4-c]pyridin-5-ylamino)-5,8-dihydropyrido[4′,3′:4,5]thieno[2,3-d]pyrimidin-7(6H)-yl]methanone] | 70 |
| C[C@@H]1CN(C(=O)N2CCc3c(sc4ncnc(Nc5cnc6[nH]ncc6c5)c34)C2)C[C@H](C)O1 [Example 35, [(2R,6S)-2,6-Dimethylmorpholin-4-yl][4-(1H-pyrazolo[3,4-b]pyridin-5-ylamino)-5,8-dihydropyrido[4′,3′:4,5]thieno[2,3-d]pyrimidin-7(6H)-yl]methanone] | 27 |
| CS(=O)(=O)N1CCc2c(sc3ncnc(Nc4ccn5nccc5c4)c23)C1 [Example 36, 7-(Methylsulfonyl)-N-(pyrazolo[1,5-a]pyridin-5-yl)-5,6,7,8-tetrahydropyrido[4′,3′:4,5]thieno[2,3-d]pyrimidin-4-amine] | 157 |
| COc1cc2[nH]ncc2cc1Nc1ncnc2sc3c(c12)CCN(S(C)(=O)=O)C3 [Example 37, N-(6-Methoxy-1H-indazol-5-yl)-7-(methylsulfonyl)-5,6,7,8-tetrahydropyrido[4′,3′:4,5]thieno[2,3-d]pyrimidin-4-amine] | 3 |
| CS(=O)(=O)N1CCc2c(sc3ncnc(Nc4ccc5[nH]ncc5c4)c23)C1 [Example 38, N-(1H-Indazol-5-yl)-7-(methylsulfonyl)-5,6,7,8-tetrahydropyrido[4′,3′:4,5]thieno[2,3-d]pyrimidin-4-amine] | 68 |
| CS(=O)(=O)N1CCc2c(sc3ncnc(Nc4ccc5[nH]c(=O)sc5c4)c23)C1 [Example 39, 6-{[7-(Methylsulfonyl)-5,6,7,8-tetrahydropyrido[4′,3′:4,5]thieno[2,3-d]pyrimidin-4-yl]amino}-1,3-benzothiazol-2(3H)-one] | 316 |
| CS(=O)(=O)N1CCc2c(sc3ncnc(Nc4cnc5[nH]ncc5c4)c23)C1 [Example 40, 7-(Methylsulfonyl)-N-(1H-pyrazolo[3,4-b]pyridin-5-yl)-5,6,7,8-tetrahydropyrido[4′,3′:4,5]thieno[2,3-d]pyrimidin-4-amine] | 139 |
| O=C(N1CCOCC1)N1CCc2c(sc3ncnc(Nc4ccc5[nH]c(=O)sc5c4)c23)C1 [Example 41, 6-{[7-(Morpholin-4-ylcarbonyl)-5,6,7,8-tetrahydropyrido[4′,3′:4,5]thieno[2,3-d]pyrimidin-4-yl]amino}-1,3-benzothiazol-2(3H)-one] | 216 |
| CSc1cc2[nH]ncc2cc1Nc1ncnc2sc3c(c12)CCN(C(=O)N(C)C)C3 [Example 46, N,N-Dimethyl-4-{[6-(methylsulfanyl)-1H-indazol-5-yl]amino}-5,8-dihydropyrido[4′,3′:4,5]thieno[2,3-d]pyrimidine-7(6H)-carboxamide] | 87 |
| CSc1cc2[nH]ncc2cc1Nc1ncnc2sc3c(c12)CCN(S(C)(=O)=O)C3 [Example 48, N-[6-(Methylsulfanyl)-1H-indazol-5-yl]-7-(methylsulfonyl)-5,6,7,8-tetrahydropyrido[4′,3′:4,5]thieno[2,3-d]pyrimidin-4-amine] | 27 |
| CS(=O)(=O)N1CCc2c(sc3ncnc(Nc4cc5cn[nH]c5cc4Cl)c23)C1 [Example 49, N-(6-Chloro-1H-indazol-5-yl)-7-(methylsulfonyl)-5,6,7,8-tetrahydropyrido[4′,3′:4,5]thieno[2,3-d]pyrimidin-4-amine] | 125 |

Now from value to compound:

| IC50 [nM] | SMILES |
| --- | --- |
| 22 | COc1cc2[nH]ncc2cc1Nc1ncnc2sc3c(c12)CCN(C(=O)N1CCOCC1)C3 [Example 42, {4-[(6-Methoxy-1H-indazol-5-yl)amino]-5,8-dihydropyrido[4′,3′:4,5]thieno[2,3-d]pyrimidin-7(6H)-yl}(morpholin-4-yl)methanone] |
| 48 | O=C(N1CCOCC1)N1CCc2c(sc3ncnc(Nc4ccc5[nH]ncc5c4)c23)C1 [Example 43, [4-(1H-Indazol-5-ylamino)-5,8-dihydropyrido[4′,3′:4,5]thieno[2,3-d]pyrimidin-7(6H)-yl](morpholin-4-yl)methanone] |
| 118 | O=C(N1CCOCC1)N1CCc2c(sc3ncnc(Nc4cnc5[nH]ncc5c4)c23)C1 [Example 44, Morpholin-4-yl[4-(1H-pyrazolo[3,4-b]pyridin-5-ylamino)-5,8-dihydropyrido[4′,3′:4,5]thieno[2,3-d]pyrimidin-7(6H)-yl]methanone] |
| 87 | COc1nc2[nH]ncc2cc1Nc1ncnc2sc3c(c12)CCNC3 [Example 45, N-(6-Methoxy-1H-pyrazolo[3,4-b]pyridin-5-yl)-5,6,7,8-tetrahydropyrido[4′,3′:4,5]thieno[2,3-d]pyrimidin-4-amine] |
| 61 | CSc1cc2[nH]ncc2cc1Nc1ncnc2sc3c(c12)CCN(C(=O)N1CCOCC1)C3 [Example 47, [4-{[6-(Methylsulfanyl)-1H-indazol-5-yl]amino}-5,8-dihydropyrido[4′,3′:4,5]thieno[2,3-d]pyrimidin-7(6H)-yl](morpholin-4-yl)methanone] |
| 40 | COc1nc2[nH]ncc2cc1Nc1ncnc2sc3c(c12)CCN(S(C)(=O)=O)C3 [Example 50, N-(6-Methoxy-1H-pyrazolo[3,4-b]pyridin-5-yl)-7-(methylsulfonyl)-5,6,7,8-tetrahydropyrido[4′,3′:4,5]thieno[2,3-d]pyrimidin-4-amine] |
| 57 | O=C(N1CCOCC1)N1CCc2c(sc3ncnc(Nc4cc5cn[nH]c5cc4Cl)c23)C1 [Example 51, {4-[(6-Chloro-1H-indazol-5-yl)amino]-5,8-dihydropyrido[4′,3′:4,5]thieno[2,3-d]pyrimidin-7(6H)-yl}(morpholin-4-yl)methanone] |
| 13 | COc1nc2[nH]ncc2cc1Nc1ncnc2sc3c(c12)CCN(C(=O)N1CCOCC1)C3 [Example 52, {4-[(6-Methoxy-1H-pyrazolo[3,4-b]pyridin-5-yl)amino]-5,8-dihydropyrido[4′,3′:4,5]thieno[2,3-d]pyrimidin-7(6H)-yl}(morpholin-4-yl)methanone] |
| 258 | O=C(N1CCOCC1)N1CCc2c(sc3ncnc(Nc4cc5cn[nH]c5cc4Br)c23)C1 [Example 53, {4-[(6-Bromo-1H-indazol-5-yl)amino]-5,8-dihydropyrido[4′,3′:4,5]thieno[2,3-d]pyrimidin-7(6H)-yl}(morpholin-4-yl)methanone] |
